Measurements: the NIST ThermoML archive (doi:10.1021/je4000372)

Assay: xn = mol fraction of the nth substance listed
Details: 101 kPa, Liquid; for viscosity: Capillary tube (Ostwald / Ubbelohde) method; for mass density: Pycnometric method

CCCCOCCOCCO [3,6-dioxa-1-decanol] + NCCO
Details	mass density, 293.15 K [kg/m3]	mass density, 303.15 K [kg/m3]	mass density, 313.15 K [kg/m3]	mass density, 323.15 K [kg/m3]	mass density, 333.15 K [kg/m3]	viscosity, 293.15 K [mPa·s]	viscosity, 303.15 K [mPa·s]	viscosity, 313.15 K [mPa·s]	viscosity, 323.15 K [mPa·s]	viscosity, 333.15 K [mPa·s]
x1 = 0.04025	1010.3	1002.5	994.3	986.2	978.2	23.11	14.27	9.52	6.64	4.82
x1 = 0.08607	1004.5	996.6	988.5	980.4	972.5	21.86	13.61	9.1	6.37	4.65
x1 = 0.1392	998.5	990.5	982.5	974.3	966.4	20.39	12.86	8.62	6.07	4.43
x1 = 0.2008	992.5	984.2	976.4	968.1	960.1	18.81	11.99	8.08	5.73	4.19
x1 = 0.2732	986.4	977.9	970.1	961.7	953.7	17.01	11.01	7.47	5.33	3.91
x1 = 0.3602	980.2	971.5	963.7	955.1	947.1	15.02	9.83	6.76	4.88	3.61
x1 = 0.4111	976.9	968.2	960.4	951.8	943.7	13.86	9.16	6.37	4.63	3.45
x1 = 0.4671	973.8	964.9	957.2	948.4	940.4	12.72	8.51	5.97	4.37	3.28
x1 = 0.4977	972.1	963.3	955.5	946.7	938.7	12.16	8.17	5.77	4.23	3.19
x1 = 0.6007	967.1	958.1	950.3	941.5	933.5	10.46	7.18	5.12	3.79	2.91
x1 = 0.7204	962	952.9	945.2	936.3	928.3	8.65	6.21	4.42	3.34	2.59
x1 = 0.7699	960.2	951.1	943.3	934.4	926.4	8.02	5.82	4.17	3.17	2.48
x1 = 0.8163	958.5	949.3	941.6	932.7	924.7	7.42	5.47	3.96	3.02	2.37
x1 = 0.9331	954.8	945.5	937.7	928.7	920.7	6.34	4.62	3.48	2.69	2.11
x1 = 1	952.9	943.5	935.7	926.6	918.5	5.84	4.23	3.22	2.51	2

CCCCOCCOCCO [3,6-dioxa-1-decanol] + OCCNCCO
Details	mass density, 293.15 K [kg/m3]	mass density, 303.15 K [kg/m3]	mass density, 313.15 K [kg/m3]	mass density, 323.15 K [kg/m3]	mass density, 333.15 K [kg/m3]	viscosity, 293.15 K [mPa·s]	viscosity, 303.15 K [mPa·s]	viscosity, 313.15 K [mPa·s]	viscosity, 323.15 K [mPa·s]	viscosity, 333.15 K [mPa·s]
x1 = 0.03299	1088.3	1081.8	1075.8	1069.4	1062.8	681.3	290.7	156.2	80.04	46.73
x1 = 0.06718	1080.7	1074.2	1068	1061.5	1054.9	550.2	231.6	122.5	66.29	38.49
x1 = 0.1026	1073.2	1066.5	1060.3	1053.6	1046.9	425.1	189.9	98.2	53.87	31.99
x1 = 0.1394	1065.8	1058.9	1052.5	1045.7	1038.8	321.3	150.1	81.15	43.18	26.71
x1 = 0.2174	1050.9	1043.7	1037.1	1029.9	1022.8	191.6	96.21	53.26	30.37	19.13
x1 = 0.3018	1036.3	1028.7	1021.9	1014.5	1007.3	114.4	59.95	34.51	20.74	13.22
x1 = 0.3933	1021.9	1014	1007	999.2	991.8	65.16	37.05	22.29	14.26	9.429
x1 = 0.4929	1007.7	999.5	992.3	984.2	976.7	38.57	22.76	14.83	9.416	6.995
x1 = 0.6019	993.8	985.2	977.9	969.6	961.9	23.75	14.92	10.02	7.041	5.178
x1 = 0.7008	982.3	973.5	966.1	957.6	949.8	15.75	10.43	7.262	5.199	3.927
x1 = 0.7558	976.4	967.5	960	951.4	943.5	12.19	8.762	6.011	4.251	3.358
x1 = 0.8059	971.2	962.2	954.7	946	938.1	10.43	7.305	5.293	3.759	3.035
x1 = 0.8537	966.4	957.3	949.7	940.9	933	8.982	6.312	4.629	3.407	2.756
x1 = 0.9031	961.6	952.4	944.8	935.9	927.9	7.858	5.501	4.032	3.028	2.463
x1 = 1	952.9	943.5	935.7	926.6	918.5	5.84	4.23	3.22	2.51	2

OCCN(CCO)CCO [triethanolamine] + CCCCOCCOCCO
Details	mass density, 293.15 K [kg/m3]	mass density, 303.15 K [kg/m3]	mass density, 313.15 K [kg/m3]	mass density, 323.15 K [kg/m3]	mass density, 333.15 K [kg/m3]	viscosity, 293.15 K [mPa·s]	viscosity, 303.15 K [mPa·s]	viscosity, 313.15 K [mPa·s]	viscosity, 323.15 K [mPa·s]	viscosity, 333.15 K [mPa·s]
x2 = 0	1124.3	1118.5	1112.8	1107.1	1101.5	917.6	404.7	203.9	108.3	64.2
x2 = 0.09279	1105.1	1098.9	1093.1	1087.2	1081.4	491.9	228.3	112.58	69.65	43.5
x2 = 0.1871	1086.3	1079.9	1073.9	1067.5	1061.6	269.8	126.6	67.74	44.43	28.3
x2 = 0.2841	1067.9	1061	1054.8	1048.1	1041.8	153.2	69.69	40.77	28.48	18.4
x2 = 0.3804	1050.4	1043.1	1036.7	1029.5	1022.9	85.31	41.88	25.92	17.59	12.6
x2 = 0.4787	1033.3	1025.6	1018.9	1011.4	1004.5	50.08	26.39	16.38	–	8.97
x2 = 0.5789	1016.5	1008.5	1001.6	993.7	986.6	30.52	17.51	10.81	8.79	6.52
x2 = 0.6816	999.9	991.7	984.6	976.4	969	18.81	10.74	7.41	5.83	4.71
x2 = 0.7855	983.9	975.2	967.9	959.5	951.9	12.36	8.16	–	4.35	3.54
x2 = 0.8923	968.1	959.1	951.5	942.7	934.9	8.49	6.01	–	3.39	2.67
